Our source for the IC50 values is patent US10005774B2, “Syk inhibitors” (Gilead Sciences, Inc., priority 2013, dated 2018).

pIC50: −log10 of the molar value.

For one assay, the target named is Syk (Homo sapiens, UniProt P43405). In words: High Throughput Syk Biochemical Assay (KinEASE TR-FRET). Conditions: TABLE D, 20 μM ATP, 1 μM biotinylated peptide, 0.015 nM Syk, 30 min at room temperature, read-out: IC50. How it is done:
High Throughput Syk Biochemical Assay
Syk activity was measured using KinEASE (Cisbio), a time-resolved fluorescence resonance energy transfer (TR-FRET) immunoassay. In this assay. Syk-catalyzes the phosporylation of a XL665-labeled peptide substrate. Europium conjugated phospho-tyrosine specific antibody binds the resulting phosphorylated peptide. Formation of phosphorylated peptide is quantified by TR-FRET with Europium as the donor and XL665 the acceptor in a 2-step endpoint assay. In brief, test compounds serially diluted in DMSO were delivered into Corning white, low volume, non-binding 384 well plates using the Echo 550 acoustic liquid dispenser (Labcyte®). Syk enzyme and substrates were dispensed into assay plates using a Multi-Flo (Bio-Tek Instruments). […] Percent inhibition was calculated as follows: % Inhibition=100×(RatioSample−Ratio0% Inhibition)/(Ratio100% Inhibition−Ratio0% Inhibition)
Consider `C[C@@H](Oc1nc(-c2ccc3c(c2)C(=O)NCCO3)cc2ncn(C)c12)[C@H]1CNC(=O)C1` [7-(3-methyl-4-((R)-1-((R)-5-oxopyrrolidin-3-yl)ethoxy)-3H-imidazo[4,5-c]pyridin-6-yl)-3,4-dihydrobenzo[f][1,4]oxazepin-5(2H)-one], for which the negative logarithm of the IC50 (pIC50) is 7.51.

Consider `COc1cc(-c2cc3ncn(C)c3c(O[C@H](C)[C@H]3CNC(=O)C3)n2)ccc1F` [(R)-4-((R)-1-(6-(4-fluoro-3-methoxyphenyl)-3-methyl-3H-imidazo[4,5-c]pyridin-4-yloxy)ethyl)pyrrolidin-2-one], for which the pIC50 was 7.40.

As for `C[C@@H](Oc1nc(-c2ccc3c(c2)OCCN3C)cc2ncn(C)c12)[C@H]1CNC(=O)C1` [(R)-4-((R)-1-(3-methyl-6-(4-methyl-3,4-dihydro-2H-benzo[b][1,4]oxazin-7-yl)-3H-imidazo[4,5-c]pyridin-4-yloxy)ethyl)pyrrolidin-2-one], the pIC50 is 8.05.

Take `C[C@@H](Oc1nc(-c2ccc(S(=O)(=O)N(C)C)cc2)cc2ncn(C)c12)[C@H]1CNC(=O)C1` [N,N-dimethyl-4-(3-methyl-4-((R)-1-((R)-5-oxopyrrolidin-3-yl)ethoxy)-3H-imidazo[4,5-c]pyridin-6-yl)benzenesulfonamide]: the pIC50 is 7.87.

On to `C[C@@H](Oc1nc(-c2ccc(N3CCN(C(=O)OC(C)(C)C)CC3)cc2)cc2ncn(C)c12)[C@H]1CNC(=O)C1` [tert-butyl 4-(4-(3-methyl-4-((R)-1-((R)-5-oxopyrrolidin-3-yl)ethoxy)-3H-imidazo[4,5-c]pyridin-6-yl)phenyl)piperazine-1-carboxylate], for which the pIC50 was 7.74.

For the compound `C[C@@H](Oc1nc(-c2cnn(C3CCC3)c2)cc2ncn(C)c12)[C@H]1CNC(=O)C1` [(R)-4-((R)-1-(6-(1-cyclobutyl-1H-pyrazol-4-yl)-3-methyl-3H-imidazo[4,5-c]pyridin-4-yloxy)ethyl)pyrrolidin-2-one], the pIC50 is 8.12.

As to `COc1ccc(-c2cc3ncn(C)c3c(O[C@H](C)[C@H]3CNC(=O)C3)n2)cc1F` [(R)-4-((R)-1-(6-(3-fluoro-4-methoxyphenyl)-3-methyl-3H-imidazo[4,5-c]pyridin-4-yloxy)ethyl)pyrrolidin-2-one], the pIC50 is 7.76.

On to `COc1ccc(-c2cc(O[C@H](C)[C@H]3CNC(=O)C3)c3scnc3c2)cc1OC` (stereo in doubt) [(R)-4-((R)-1-((5-(3,4-dimethoxyphenyl)benzo[d]thiazol-7-yl)oxy)ethyl)pyrrolidin-2-one], for which the pIC50 is 8.30.

Take `C[C@@H](Oc1nc(-c2cnn(C(C)(C)C)c2)cc2ncn(C)c12)[C@H]1CNC(=O)C1` [(R)-4-((R)-1-(6-(1-tert-butyl-1H-pyrazol-4-yl)-3-methyl-3H-imidazo[4,5-c]pyridin-4-yloxy)ethyl)pyrrolidin-2-one]: the pIC50 was 8.31.

Regarding `CC(C)Cn1cc(-c2cc3ncn(C)c3c(O[C@H](C)[C@H]3CNC(=O)C3)n2)cn1` [(R)-4-((R)-1-(6-(1-isobutyl-1H-pyrazol-4-yl)-3-methyl-3H-imidazo[4,5-c]pyridin-4-yloxy)ethyl)pyrrolidin-2-one], the pIC50 was 7.80.

For the compound `C[C@@H](Oc1nc(-c2cnn(CCF)c2)cc2ncn(C)c12)[C@H]1CNC(=O)C1` [(R)-4-((R)-1-(6-(1-(2-fluoroethyl)-1H-pyrazol-4-yl)-3-methyl-3H-imidazo[4,5-c]pyridin-4-yloxy)ethyl)pyrrolidin-2-one], the pIC50 was 7.88.

Turning to `COc1ccc(-c2cc(O[C@H](C)[C@H]3CNC(=O)C3)c3sc(C)nc3c2)cc1OC` [(R)-4-((R)-1-((5-(3,4-dimethoxyphenyl)-2-methylbenzo[d]thiazol-7-yl)oxy)ethyl)pyrrolidin-2-one], the pIC50 was 7.16.

On to `C[C@@H](Oc1nc(-c2ccccc2)cc2ncn(C)c12)[C@H]1CNC(=O)C1` [(R)-4-((R)-1-(3-methyl-6-phenyl-3H-imidazo[4,5-c]pyridin-4-yloxy)ethyl)pyrrolidin-2-one], for which the pIC50 was 7.47.

Turning to `COc1ccc(-c2cc(O[C@H](C)[C@H]3CNC(=O)C3)c3ccnn3c2)nc1OC` [(R)-4-((R)-1-((6-(5,6-dimethoxypyridin-2-yl)pyrazolo[1,5-a]pyridin-4-yl)oxy)ethyl)pyrrolidin-2-one], the pIC50 is 8.32.

Consider `C[C@@H](Oc1cc(-c2cnn(CC(F)F)c2)cc2ncsc12)[C@H]1CNC(=O)C1` (stereo in doubt) [(R)-4-((R)-1-((5-(1-(2,2-difluoroethyl)-1H-pyrazol-4-yl)benzo[d]thiazol-7-yl)oxy)ethyl)pyrrolidin-2-one], for which the pIC50 is 8.91.

Consider `CC(C)n1cc(-c2cc(O[C@H](C)[C@H]3CNC(=O)C3)c3scnc3c2)cn1` (stereo in doubt) [(R)-4-((R)-1-((5-(1-isopropyl-1H-pyrazol-4-yl)benzo[d]thiazol-7-yl)oxy)ethyl)pyrrolidin-2-one], for which the pIC50 was 9.16.

Staying with this assay, now noted: table 'ALL NEW COMPOUNDS IN 2014', 20 μM ATP, 1 μM biotinylated peptide, 0.015 nM Syk, 30 min at room temperature, read-out: Syk IC50.
Turning to `CC(C)S(=O)(=O)N1CCN(c2ccc(-c3cc4ncn(C5CC5)c4c(O[C@H](C)[C@H]4CNC(=O)C4)n3)cc2)CC1` [(R)-4-((R)-1-((3-cyclopropyl-6-(4-(4-(isopropylsulfonyl)piperazin-1-yl)phenyl)-3H-imidazo[4,5-c]pyridin-4-yl)oxy)ethyl)pyrrolidin-2-one], the pIC50 was 8.95.

On to `Cc1ncc(-c2cc(O[C@H](C)[C@H]3CNC(=O)C3)c3c(c2)ncn3C2CC2)[nH]1`, for which the negative-log IC50 (pIC50) is 7.68.

Consider `C[C@@H](Oc1nc(-c2cnc(C(C)(C)C)s2)cc2ncn(C3CC3)c12)[C@H]1CNC(=O)C1` [(R)-4-((R)-1-((6-(2-(tert-butyl)thiazol-5-yl)-3-cyclopropyl-3H-imidazo[4,5-c]pyridin-4-yl)oxy)ethyl)pyrrolidin-2-one], for which the pIC50 is 8.68.

In the case of `C[C@@H](Oc1cc(-c2ccc3c(cnn3C)c2)cc2ncn(C3CC3)c12)[C@H]1CNC(=O)C1` [(R)-4-((R)-1-((1-cyclopropyl-5-(1-methyl-1H-indazol-5-yl)-1H-benzo[d]imidazol-7-yl)oxy)ethyl)pyrrolidin-2-one], the pIC50 was 8.30.

`CCOc1ccc(-c2cc3ncn(C4CC4)c3c(O[C@H](C)[C@H]3CNC(=O)C3)n2)cc1OC` [(R)-4-((R)-1-((3-cyclopropyl-6-(4-ethoxy-3-methoxyphenyl)-3H-imidazo[4,5-c]pyridin-4-yl)oxy)ethyl)pyrrolidin-2-one]: the negative logarithm of the IC50 (pIC50) is 8.61.

Consider `C[C@@H](Oc1nc(-c2ccc(N3CCN(C4COC4)CC3)nc2)cc2ncn(C(F)F)c12)[C@H]1CNC(=O)C1` [(R)-4-((R)-1-((3-(difluoromethyl)-6-(6-(4-(oxetan-3-yl)piperazin-1-yl)pyridin-3-yl)-3H-imidazo[4,5-c]pyridin-4-yl)oxy)ethyl)pyrrolidin-2-one], for which the pIC50 is 8.54.

`C[C@@H](Oc1cc(-c2nc(C(C)(C)C)cs2)cc2ncn(C3CC3)c12)[C@H]1CNC(=O)C1` [(R)-4-((R)-1-((5-(4-(tert-butyl)thiazol-2-yl)-1-cyclopropyl-1H-benzo[d]imidazol-7-yl)oxy)ethyl)pyrrolidin-2-one]: the pIC50 is 9.35.

`C[C@@H](Oc1cc(-c2ccccc2)cc2ncn(C3CC3)c12)[C@H]1CNC(=O)C1` [(R)-4-((R)-1-((1-cyclopropyl-5-phenyl-1H-benzo[d]imidazol-7-yl)oxy)ethyl)pyrrolidin-2-one]: the pIC50 is 7.74.
